Test results taken from patent US10618930B2, “Compounds for the treatment of cancer” (Eisai R&D Management Co., Ltd., priority 2017, dated 2020).
Where two headings read alike, the source gives them in different places.

Key:
Human STING = Human STING (Homo sapiens, UniProt Q86WV6); assay: Human STING reporter assay, Tables 6-8 (variant named only in a drawing); conditions: read-out: Human STING EC50 (μM)
REF Human STING = REF Human STING (Homo sapiens, UniProt Q86WV6); assay: STING variant specific reporter assay, REF-STING (THP1-Dual KO-STING cells); conditions: read-out: Human STING EC50 (μM) REF; Table 5; ammonium salt form of each compound
hepatocytes of human = assay: Hepatocyte incubation, metabolite identification (human); format: in vitro ADME; conditions: 10 μmol/L
Experimental: (§1) Prior to incubations, the cryopreserved hepatocytes were thawed in a water bath at 37° C. One tube of cryopreserved hepatocytes was added to each 50-mL conical tube of cryopreserved hepatocyte recovery medium (UCRM) obtained from In Vitro ADMET Laboratories (Columbia, Md.). The cells were spun in a Beckman centrifuge (Brea, Calif.) with a GH 3.8 rotor at 740 rpm for 10 minutes at […]. The supernatant was removed and the cells were re-suspended in plating media for counting. After the cells were re-suspended in plating media, 20 μL of the re-suspension was transferred and mixed with 20 μL of AOPI staining solution. The solution was gently mixed and cells were counted using a Cellometer (Nexcelom, Lawrence, Mass.). After counting, the cells were then re-suspended at 1 or 2 million viable cells/mL in Williams' E media containing 2 mmol/L L-glutamine (pH 7.4).
(§2) The hepatocyte suspension (50 μL/well) was added into a 48-well plate. […]
(§3) The LC-MS/MS system was composed of a Shimadzu HPLC and an AB-SCIEX TripleTOF 5600 hybrid quadrupole and TOF mass spectrometer (Framingham, Mass.). […] The samples obtained from incubations with hepatocytes were analyzed under both negative and positive scan modes. […]

[1] = system: hepatocytes of Cynomolgus monkey; assay: Hepatocyte incubation, metabolite identification (monkey); format: in vitro ADME; conditions: 10 μmol/L
Experimental: as §1, §2, §3

[2] = system: hepatocytes of CD-1 mouse; assay: Hepatocyte incubation, metabolite identification (mouse); format: in vitro ADME; conditions: 10 μmol/L
Experimental: as §1, §2, §3

[3] = system: hepatocytes of Beagle dog; assay: Hepatocyte incubation, metabolite identification (dog); format: in vitro ADME; conditions: 10 μmol/L
Experimental: as §1, §2, §3

[4] = system: primary human PBMC IFNβ protein production; assay: Ex vivo human PBMC stimulation assay, IFNβ protein; format: cell-based; conditions: average of five donors
Experimental: After 24 hours of incubation the tubes were centrifuged at 1400 rpm for 5 minutes and supernatants were harvested. Supernatant were stored in −80° C. for subsequent IFNβ measurement. IFNβ measurement was done using Human IFN-β Base Kit (Meso Scale Diagnostics cat # K151ADA) and protocol provided by manufacturer was used. IFN-beta estimation was done by reading assay plate at MESO SECTOR Imager 2400 and using MSD Discovery Workbench 4.0 program. After 24 hours IFNβ protein was analyzed.
Results shown in Table 10 reflect an average of measurements conducted using five different donors.

CT26 tumors = assay: CT26 dual tumor model (mouse colon cancer model)
[5] = system: hepatocytes of Sprague Dawley rat; assay: Hepatocyte incubation, metabolite identification (rat); format: in vitro ADME; conditions: 10 μmol/L
Experimental: as §1, §2, §3

[6] = Table 6, head only in drawing 188, ammonium salt form except Compounds 26, 33, 34 (bis-TEA salts)

Human STING, sequence (Q86WV6 whole entry): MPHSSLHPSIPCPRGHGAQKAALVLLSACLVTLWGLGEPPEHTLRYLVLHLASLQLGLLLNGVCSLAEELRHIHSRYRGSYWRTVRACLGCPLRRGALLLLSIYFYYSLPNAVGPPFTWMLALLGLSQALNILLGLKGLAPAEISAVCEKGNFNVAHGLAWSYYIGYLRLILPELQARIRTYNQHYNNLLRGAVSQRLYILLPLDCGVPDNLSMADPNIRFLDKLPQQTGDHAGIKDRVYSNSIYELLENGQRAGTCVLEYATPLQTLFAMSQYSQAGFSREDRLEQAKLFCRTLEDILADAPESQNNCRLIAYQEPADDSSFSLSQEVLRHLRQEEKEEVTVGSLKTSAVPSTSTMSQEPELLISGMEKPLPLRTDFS
REF Human STING, sequence (Q86WV6 whole entry): as above

With C=CCN(C(=O)c1ccccc1)c1ncnc2c1ncn2[C@@H]1O[C@@H]2COP(=S)(OCCC#N)O[C@H]3[C@@H](F)[C@H](n4cnc5c(N(CC=C)C(=O)c6ccccc6)ncnc54)O[C@@H]3COP(=O)(S)O[C@H]2[C@H]1F (stereo partly drawn) the ring closure, yield of all isomers (from C=CCN(C(=O)c1ccccc1)c1ncnc2c1ncn2[C@@H]1O[C@H](COP(=S)(OCCC#N)O[C@H]2[C@@H](F)[C@H](n3cnc4c(N(CC=C)C(=O)c5ccccc5)ncnc43)O[C@@H]2CO)[C@@H](O[PH](=O)O)[C@H]1F, other bond, 2 steps) was 100%.

CC(C)(C)[Si](C)(C)O[C@@H]1[C@@H]2N[P@@](=S)(OCCC#N)OC[C@H]3O[C@@H]4[C@H](O[Si](C)(C)C(C)(C)C)[C@@H]3N[P@](=S)(OCCC#N)OC[C@H]2O[C@H]1n1cnc2c(ncnc21)N(C(=O)c1ccccc1)CC=CCN(C(=O)c1ccccc1)c1ncnc2c1ncn24 showed a ring closure, yield of all isomers (from C=CCN(C(=O)c1ccccc1)c1ncnc2c1ncn2[C@@H]1O[C@@H]2CO[P@@](=S)(OCCC#N)N[C@H]3[C@@H](O[Si](C)(C)C(C)(C)C)[C@H](n4cnc5c(N(CC=C)C(=O)c6ccccc6)ncnc54)O[C@@H]3CO[P@](=S)(OCCC#N)N[C@H]2[C@H]1O[Si](C)(C)C(C)(C)C, rcm bond) of 24.5%.

In the case of CC(C)(C)[Si](C)(C)O[C@H]1[C@H]2O[P@@](=O)(SCc3ccccc3[N+](=O)[O-])OC[C@H]3O[C@@H]4[C@H](F)[C@@H]3O[P@](=O)(SCc3ccccc3[N+](=O)[O-])OC[C@H]1O[C@H]2n1cnc2c(ncnc21)N(C(=O)c1ccccc1)CC=CCN(C(=O)c1ccccc1)c1ncnc2c1ncn24, the ring closure, yield of all isomers (from C=CCN(C(=O)c1ccccc1)c1ncnc2c1ncn2[C@@H]1O[C@@H]2CO[P@](=O)(SCc3ccccc3[N+](=O)[O-])O[C@@H]3[C@H](O[Si](C)(C)C(C)(C)C)[C@@H](CO[P@@](=O)(SCc4ccccc4[N+](=O)[O-])O[C@H]2[C@H]1F)O[C@H]3n1cnc2c(N(CC=C)C(=O)c3ccccc3)ncnc21, rcm bond) was 6.1%.

In the case of O=C(c1ccccc1)N1CC=CCN(C(=O)c2ccccc2)c2ncnc3c2ncn3[C@@H]2O[C@@H]3CO[P@](=O)(SCc4ccccc4[N+](=O)[O-])O[C@H]4[C@@H](F)[C@@H](O[C@@H]4CO[P@@](=O)(SCc4ccccc4[N+](=O)[O-])O[C@H]3[C@H]2F)n2cnc3c1ncnc32, the ring closure, yield of all isomers (from C=CCN(C(=O)c1ccccc1)c1ncnc2c1ncn2[C@@H]1O[C@@H]2CO[P@@](=O)(SCc3ccccc3[N+](=O)[O-])O[C@H]3[C@@H](F)[C@H](n4cnc5c(N(CC=C)C(=O)c6ccccc6)ncnc54)O[C@@H]3CO[P@](=O)(SCc3ccccc3[N+](=O)[O-])O[C@H]2[C@H]1F, rcm bond) was 39%.

With O=C(c1ccccc1)N1CC=CCOc2ncnc3c2ncn3[C@@H]2O[C@@H]3COP(=O)(SCc4ccccc4[N+](=O)[O-])O[C@H]4[C@@H](F)[C@@H](O[C@@H]4COP(=O)(SCc4ccccc4[N+](=O)[O-])O[C@H]3[C@H]2F)n2cnc3c1ncnc32 (stereo partly drawn) the ring closure, yield of all isomers (from C=CCOc1ncnc2c1ncn2[C@@H]1O[C@@H]2COP(=O)(SCc3ccccc3[N+](=O)[O-])O[C@H]3[C@@H](F)[C@H](n4cnc5c(N(CC=C)C(=O)c6ccccc6)ncnc54)O[C@@H]3COP(=O)(SCc3ccccc3[N+](=O)[O-])O[C@H]2[C@H]1F, rcm bond) was 25.6%.

O=[N+]([O-])c1ccccc1CSP1(=O)OC[C@H]2O[C@H]([C@H](F)[C@@H]2O)n2cnc3c(ncnc32)CCC=CCCc2ncnc3c2ncn3[C@@H]2O[C@H](CO)[C@@H](O1)[C@H]2F (stereo partly drawn) showed a ring closure, yield of all isomers (from C=CCCc1ncnc2c1ncn2[C@@H]1O[C@H](COP(=O)(O[C@H]2[C@@H](F)[C@H](n3cnc4c(CCC=C)ncnc43)O[C@@H]2COC(c2ccccc2)(c2ccc(OC)cc2)c2ccc(OC)cc2)SCc2ccccc2[N+](=O)[O-])[C@@H](O)[C@H]1F, rcm bond, 2 steps) of 26.2%.

O=[N+]([O-])c1ccccc1CS[P@]1(=O)OC[C@H]2O[C@@H]3[C@H](F)[C@@H]2O[P@](=O)(SCc2ccccc2[N+](=O)[O-])OC[C@H]2O[C@H]([C@H](F)[C@@H]2O1)n1cnc2c(ncnc21)OCC=CCOc1ncnc2c1ncn23 gave a ring closure, yield of all isomers (from C=CCOc1ncnc2c1ncn2[C@@H]1O[C@@H]2CO[P@@](=O)(SCc3ccccc3[N+](=O)[O-])O[C@H]3[C@@H](F)[C@H](n4cnc5c(OCC=C)ncnc54)O[C@@H]3CO[P@@](=O)(SCc3ccccc3[N+](=O)[O-])O[C@H]2[C@H]1F, rcm bond) of 3.6%.

For O=[P@]1(S)OC[C@H]2OC3[C@H](F)[C@@H]2O[P@](=O)(S)OC[C@H]2O[C@H]([C@H](F)[C@@H]2O1)n1cnc2c(ncnc21)NCC1NC1CNc1ncnc2c1ncn23 (single isomer, unassigned) [Compound 35], the EC50 (Human STING; [6]) was 67.2 µM.

With O=[P@]1(S)OC[C@H]2OC3[C@H](F)[C@@H]2O[P@](=O)(S)OC[C@H]2O[C@H]([C@H](F)[C@@H]2O1)n1cnc2c(ncnc21)NCC1NC1CNc1ncnc2c1ncn23 (single isomer, unassigned) [Compound 36] the EC50 (Human STING; [6]) was 94.1 µM.

With O=P1(S)OC[C@H]2O[C@@H]3[C@H](F)[C@@H]2OP(=O)(S)OC[C@H]2OC([C@H](F)[C@@H]2O1)n1cnc2c(ncnc21)NCC/C=C/CNc1ncnc2c1ncn23 (single isomer, unassigned) [Compound 37] the EC50 (REF Human STING) was over 100 µM.

In the case of O=[P@]1(S)OC[C@H]2O[C@@H]3[C@H](F)[C@@H]2O[P@](=O)(S)OC[C@H]2O[C@H]([C@H](F)[C@@H]2O1)n1cnc2c(ncnc21)NC/C=C/CNc1ncnc2c1ncn23 [Compound 1a], the “metabolites identified (LC-MS/MS)” value (hepatocytes of human; human hepatocytes) was “No apparent metabolite”, the “stability in incubations with hepatocytes” value (“stability in incubations” for short) (hepatocytes of human; human, up to 240 minutes) was “stable” and the “metabolites identified (LC-MS/MS)” value ([1]; monkey hepatocytes) was “No apparent metabolite”. For the same molecule, the “stability in incubations” value ([1]; monkey, up to 240 minutes) was “stable”, the “metabolites identified (LC-MS/MS)” value ([2]; mouse hepatocytes) was “No apparent metabolite” and the “stability in incubations” value ([2]; mouse, up to 240 minutes) was “stable”. The “metabolites identified (LC-MS/MS)” value ([3]; dog hepatocytes) was “No apparent metabolite”, the “stability in incubations” value ([3]; dog, up to 240 minutes) was “stable” and the “IFNβ” value ([4]; 0.1 μM, 24 hours) was 21.3 ± 17.8 pg/mL. The “IFNβ” value ([4]; 10 μM, 24 hours) was 540.2 ± 215.0 pg/mL, the “IFNβ” value [4] was 227.5 ± 62.4 pg/mL and the “cure rate, treated tumors” value (CT26 tumors; 0.6 mg/kg, intratumoral single dose (study B)) was 20%. The “animals cured of treated tumor at the end of study” value (CT26 tumors; 10 mg/kg, intratumoral single dose (study B)) was 100%, the “curative effects, untreated tumors” value (CT26 tumors; 10 mg/kg, intratumoral single dose into the other tumor) was 80% and the “metabolites identified (LC-MS/MS)” value ([5]; rat hepatocytes) was “No apparent metabolite”. For the same molecule, the “stability in incubations” value ([5]; rat, up to 240 minutes) was “stable”.

O=[P@@]1(S)OC[C@H]2O[C@@H]3[C@H](F)[C@@H]2O[P@](=O)(S)OC[C@H]2OC([C@H](F)[C@@H]2O1)n1cnc2c(ncnc21)OC/C=C/COc1ncnc2c1ncn23 [Compound 26] gave an EC50 (Human STING; [6]) of 7.4 µM.

Work on O=P1(O)OC[C@H]2OC3[C@H](F)[C@@H]2O[P@@](O)(=S)OC[C@H]2O[C@H]([C@H](F)[C@@H]2O1)n1cnc2c(ncnc21)NC/C=C/CNc1ncnc2c1ncn23 [Compound 27] yielded an EC50 (Human STING) of 27.6 µM.

With O=P1(O)OC[C@H]2OC3[C@H](F)[C@@H]2O[P@](O)(=S)OC[C@H]2O[C@H]([C@H](F)[C@@H]2O1)n1cnc2c(ncnc21)NC/C=C/CNc1ncnc2c1ncn23 [Compound 28] the EC50 (Human STING) was 18.4 µM.

O=[P@]1(S)OC[C@H]2OC3[C@H](F)[C@@H]2O[P@](=O)(S)OC[C@H]2O[C@H]([C@H](F)[C@@H]2O1)n1cnc2c(ncnc21)NCC#CCNc1ncnc2c1ncn23 [Compound 29] gave an EC50 (Human STING; [6]) of 8.4 µM.
